According to patent US10196390B2, “TYK2 inhibitors and uses thereof” (Nimbus Lakshmi, Inc., priority 2014, dated 2019):

Molecular target: JAK2 (Homo sapiens (Human), UniProt O60674)
Assay: JAK2 activity inhibition assay (radioactive kinase assay / Caliper assay)
Format: biochemical
Details: read-out: JAK2 Ki
Experimental: The caliper machine employs an off chip mobility shift assay to detect phosphorylated peptide substrates from kinase assays, using microfluidics technology. […] Compounds are serially diluted in DMSO then further diluted in assay buffer (25 mM HEPES, pH 7.5, 0.01% Brij-35, 0.01% Triton, 0.5 mM EGTA). 5 ul of diluted compound was added into wells first, then 10 ul of enzyme mix was added into wells, followed by 10 uL of substrate mix (peptide and ATP in 10 mM MgCl2) to start reaction. Reaction was incubated at 28° C. for 25 min and then added 25 ul stop buffer (100 mM HEPES, 0.015% Brij-35, 50 mM EDTA), followed by reading with Caliper.

Chain of JAK2 (O60674 whole entry): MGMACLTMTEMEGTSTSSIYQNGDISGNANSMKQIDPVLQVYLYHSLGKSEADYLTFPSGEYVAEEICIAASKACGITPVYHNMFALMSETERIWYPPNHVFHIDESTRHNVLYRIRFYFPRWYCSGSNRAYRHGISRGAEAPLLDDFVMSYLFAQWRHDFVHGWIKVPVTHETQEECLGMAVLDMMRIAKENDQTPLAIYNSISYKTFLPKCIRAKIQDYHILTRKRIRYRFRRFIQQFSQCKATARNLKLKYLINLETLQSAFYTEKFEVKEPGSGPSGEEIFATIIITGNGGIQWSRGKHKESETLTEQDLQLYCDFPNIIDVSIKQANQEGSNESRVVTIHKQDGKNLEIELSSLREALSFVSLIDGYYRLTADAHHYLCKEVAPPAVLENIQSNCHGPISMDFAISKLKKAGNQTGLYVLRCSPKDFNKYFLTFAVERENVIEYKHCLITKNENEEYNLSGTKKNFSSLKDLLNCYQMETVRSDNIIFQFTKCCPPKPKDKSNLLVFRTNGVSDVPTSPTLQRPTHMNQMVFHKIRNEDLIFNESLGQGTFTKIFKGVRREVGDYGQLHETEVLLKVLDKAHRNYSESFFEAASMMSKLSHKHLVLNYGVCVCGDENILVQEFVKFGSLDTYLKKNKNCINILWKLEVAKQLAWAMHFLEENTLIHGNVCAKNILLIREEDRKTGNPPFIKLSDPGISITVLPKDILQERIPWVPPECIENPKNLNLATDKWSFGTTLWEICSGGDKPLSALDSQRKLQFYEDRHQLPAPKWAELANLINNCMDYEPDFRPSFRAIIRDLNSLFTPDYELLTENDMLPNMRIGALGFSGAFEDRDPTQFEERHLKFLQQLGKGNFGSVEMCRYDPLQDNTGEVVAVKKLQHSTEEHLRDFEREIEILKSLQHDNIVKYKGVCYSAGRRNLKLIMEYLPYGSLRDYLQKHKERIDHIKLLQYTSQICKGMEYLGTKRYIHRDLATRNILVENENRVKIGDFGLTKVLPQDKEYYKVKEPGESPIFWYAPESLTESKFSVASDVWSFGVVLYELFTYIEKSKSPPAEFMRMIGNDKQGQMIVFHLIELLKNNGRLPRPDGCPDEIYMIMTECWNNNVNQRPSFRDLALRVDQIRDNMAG

Compound | Ki [µM]
CN1CCN(C)[C@](C)(c2ccc(Nc3nc(-c4c(F)cccc4F)nc4c3C(=O)NC4)cc2)C1=O [Compound I-210, (R)-2-(2,6-difluorophenyl)-4-((4-(1,2,4-trimethyl-3-oxopiperazin-2-yl)phenyl)amino)-6,7-dihydro-5H-pyrrolo[3,4-d]pyrimidin-5-one] | 0.01 to 0.1
CN1CCN(C)C(C)(c2ccc(Nc3nc(-c4c(F)cccc4F)nc4c3C(=O)NC4)cc2)C1=O (stereo not drawn) [Compound I-209, 2-(2,6-difluorophenyl)-4-((4-(1,2,4-trimethyl-3-oxopiperazin-2-yl)phenyl)amino)-6,7-dihydro-5H-pyrrolo[3,4-d]pyrimidin-5-one] | 0.01 to 0.1
CC[C@]1(c2ccc(Nc3nc(-c4c(F)cccc4F)nc4c3C(=O)NC4)cc2)CCNC1=O [Compound I-177, (R)-2-(2,6-difluorophenyl)-4-((4-(3-ethyl-2-oxopyrrolidin-3-yl)phenyl)amino)-6,7-dihydro-5H-pyrrolo[3,4-d]pyrimidin-5-one] | 0.01 to 0.1
O=C1NCc2nc(-c3c(F)cccc3F)cc(Nc3ccc(N4CCCC(O)C4)cn3)c21 (stereo not drawn) [Compound I-269, 2-(2,6-difluorophenyl)-4-((5-(3-hydroxypiperidin-1-yl)pyridin-2-yl)amino)-6,7-dihydro-5H-pyrrolo[3,4-b]pyridin-5-one] | 0.01 to 0.1
COc1ccc(Nc2cc(-c3c(F)cccc3F)nc3c2C(=O)NC3C)nc1 (stereo not drawn) [Compound I-239, 2-(2,6-difluorophenyl)-4-((5-methoxypyridin-2-yl)amino)-7-methyl-6,7-dihydro-5H-pyrrolo[3,4-b]pyridin-5-one] | 0.1 to 1
O=C1NCc2nc(-c3c(F)cccc3F)cc(Nc3ccc(C(=O)N4CCOCC4)cn3)c21 [Compound I-212, 2-(2,6-difluorophenyl)-4-((5-(morpholine-4-carbonyl)pyridin-2-yl)amino)-6,7-dihydro-5H-pyrrolo[3,4-b]pyridin-5-one] | 0.01 to 0.1
CCNC(=O)c1cnc(Nc2cc(-c3c(F)cccc3F)nc3c2C(=O)NC3)cc1F [Compound I-286, 6-((2-(2,6-difluorophenyl)-5-oxo-6,7-dihydro-5H-pyrrolo[3,4-b]pyridin-4-yl)amino)-N-ethyl-4-fluoronicotinamide] | 0.1 to 1
O=C1NCc2nc(-c3c(F)cccc3F)c(F)c(Nc3ccc(N4CCOCC4)cn3)c21 [Compound I-254, 2-(2,6-difluorophenyl)-3-fluoro-4-((5-morpholinopyridin-2-yl)amino)-6,7-dihydro-5H-pyrrolo[3,4-b]pyridin-5-one] | 0.01 to 0.1
CC1COCCN1c1ccc(Nc2cc(-c3c(F)cccc3F)nc3c2C(=O)NC3)nc1 (stereo not drawn) [Compound I-244, 2-(2,6-difluorophenyl)-4-((5-(3-methylmorpholino)pyridin-2-yl)amino)-6,7-dihydro-5H-pyrrolo[3,4-b]pyridin-5-one] | 0.01 to 0.1
CC1(O)CCN(C(=O)c2ccc(Nc3cc(-c4c(F)cccc4F)nc4c3C(=O)NC4)cc2)CC1 [Compound I-275, 2-(2,6-difluorophenyl)-4-((4-(4-hydroxy-4-methylpiperidine-1-carbonyl)phenyl)amino)-6,7-dihydro-5H-pyrrolo[3,4-b]pyridin-5-one] | 0.01 to 0.1
O=C1NCc2nc(-c3c(F)cccc3F)cc(Nc3ccc(N4C5COCC4C5)cn3)c21 [Compound I-279, 4-((5-(3-oxa-6-azabicyclo[3.1.1]heptan-6-yl)pyridin-2-yl)amino)-2-(2,6-difluorophenyl)-6,7-dihydro-5H-pyrrolo[3,4-b]pyridin-5-one] | 0.01 to 0.1
CC1(C)CCN(c2ccc(Nc3cc(-c4c(F)cccc4F)nc4c3C(=O)NC4)nc2)CC1 [Compound I-252, 2-(2,6-difluorophenyl)-4-((5-(4,4-dimethylpiperidin-1-yl)pyridin-2-yl)amino)-6,7-dihydro-5H-pyrrolo[3,4-b]pyridin-5-one] | 0.1 to 1
O=C1NCc2nc(-c3c(F)cccc3F)cc(Nc3ccc(F)cc3)c21 [Compound I-235, 2-(2,6-difluorophenyl)-4-((4-fluorophenyl)amino)-6,7-dihydro-5H-pyrrolo[3,4-b]pyridin-5-one] | 0.1 to 1
COC(=O)C(C)c1ccc(Nc2nc(-c3c(F)cccc3F)nc3c2C(=O)NC3)cc1 (stereo not drawn) [Compound I-188, methyl 2-(4-((2-(2,6-difluorophenyl)-5-oxo-6,7-dihydro-5H-pyrrolo[3,4-d]pyrimidin-4-yl)amino)phenyl)propanoate] | 0.01 to 0.1
O=C(Cc1ccc(Nc2nc(-c3c(F)cccc3F)nc3c2C(=O)NC3)cc1)NC1CNC1 [Compound I-12, N-(azetidin-3-yl)-2-(4-((2-(2,6-difluorophenyl)-5-oxo-6,7-dihydro-5H-pyrrolo[3,4-d]pyrimidin-4-yl)amino)phenyl)acetamide] | 0.1 to 1
O=C1NCc2nc(-c3c(F)cccc3F)cc(Nc3ccc(C4(O)CCOCC4)cn3)c21 [Compound I-251, 2-(2,6-difluorophenyl)-4-((5-(4-hydroxytetrahydro-2H-pyran-4-yl)pyridin-2-yl)amino)-6,7-dihydro-5H-pyrrolo[3,4-b]pyridin-5-one] | 0.01 to 0.1
C[C@H](C(=O)O)c1ccc(Nc2nc(-c3c(F)cccc3F)nc3c2C(=O)NC3)cc1 [Compound I-191, (S)-2-(4-((2-(2,6-difluorophenyl)-5-oxo-6,7-dihydro-5H-pyrrolo-[3,4-d]pyrimidin-4-yl)amino)phenyl)propanoic Acid] | 0.1 to 1
CC1(c2ccc(Nc3nc(-c4c(F)cccc4F)nc4c3C(=O)NC4)cc2)COC1 [Compound I-255, 2-(2,6-difluorophenyl)-4-((4-(3-methyloxetan-3-yl)phenyl)-amino)-6,7-dihydro-5H-pyrrolo[3,4-d]pyrimidin-5-one] | 0.01 to 0.1
CCNC(=O)c1ccc(Nc2cc(-c3c(F)cccc3Cl)nc3c2C(=O)NC3)nc1 [Compound I-146, 6-((2-(2-chloro-6-fluorophenyl)-5-oxo-6,7-dihydro-5H-pyrrolo[3,4-b]pyridin-4-yl)amino)-N-ethylnicotinamide] | 0.01 to 0.1
CC1(C)CN(c2ccc(Nc3cc(-c4c(F)cccc4F)nc4c3C(=O)NC4)nc2)CC[C@@H]1O [Compound I-267, (S)-2-(2,6-difluorophenyl)-4-((5-(4-hydroxy-3,3-dimethylpiperidin-1-yl)pyridin-2-yl)amino)-6,7-dihydro-5H-pyrrolo[3,4-b]pyridin-5-one] | 0.01 to 0.1
O=C1NCc2nc(-c3c(F)cccc3F)cc(Nc3ccc(C4=CCOCC4)cn3)c21 [Compound I-249, 2-(2,6-difluorophenyl)-4-((5-(3,6-dihydro-2H-pyran-4-yl)pyridin-2-yl)amino)-6,7-dihydro-5H-pyrrolo[3,4-b]pyridin-5-one] | 0.01 to 0.1
C[C@@H]1CCC[C@H](C)N1c1ccc(Nc2cc(-c3c(F)cccc3F)nc3c2C(=O)NC3)nc1 [Compound I-261, 2-(2,6-difluorophenyl)-4-((5-((2R,6S)-2,6-dimethylpiperidin-1-yl)pyridin-2-yl)amino)-6,7-dihydro-5H-pyrrolo[3,4-b]pyridin-5-one] | 0.01 to 0.1
CC1(C)CCCC(=O)N1c1ccc(Nc2cc(-c3c(F)cccc3F)nc3c2C(=O)NC3)nc1 [Compound I-284, 2-(2,6-difluorophenyl)-4-((5-(2,2-dimethyl-6-oxopiperidin-1-yl)pyridin-2-yl)amino)-6,7-dihydro-5H-pyrrolo[3,4-b]pyridin-5-one] | 0.01 to 0.1
C[C@@H](C(=O)O)c1ccc(Nc2nc(-c3c(F)cccc3F)nc3c2C(=O)NC3)cc1 [Compound I-190, (R)-2-(4-((2-(2,6-difluorophenyl)-5-oxo-6,7-dihydro-5H-pyrrolo-[3,4-d]pyrimidin-4-yl)amino)phenyl)propanoic Acid] | 0.1 to 1
CCC1(c2ccc(Nc3nc(-c4c(F)cccc4F)nc4c3C(=O)NC4)cc2)CCNC1=O (stereo not drawn) [Compound I-175, 2-(2,6-difluorophenyl)-4-((4-(3-ethyl-2-oxopyrrolidin-3-yl)phenyl)amino)-6,7-dihydro-5H-pyrrolo[3,4-d]pyrimidin-5-one] | 0.01 to 0.1
COCCNC(=O)c1ccc(Nc2cc(-c3c(F)cccc3F)nc3c2C(=O)NC3)nc1 [Compound I-141, 6-((2-(2,6-difluorophenyl)-5-oxo-6,7-dihydro-5H-pyrrolo[3,4-b]pyridin-4-yl)amino)-N-(2-methoxyethyl)nicotinamide] | 0.01 to 0.1

Molecular target: TYK2 (Homo sapiens (Human), UniProt P29597)
Sequence (P29597 whole entry): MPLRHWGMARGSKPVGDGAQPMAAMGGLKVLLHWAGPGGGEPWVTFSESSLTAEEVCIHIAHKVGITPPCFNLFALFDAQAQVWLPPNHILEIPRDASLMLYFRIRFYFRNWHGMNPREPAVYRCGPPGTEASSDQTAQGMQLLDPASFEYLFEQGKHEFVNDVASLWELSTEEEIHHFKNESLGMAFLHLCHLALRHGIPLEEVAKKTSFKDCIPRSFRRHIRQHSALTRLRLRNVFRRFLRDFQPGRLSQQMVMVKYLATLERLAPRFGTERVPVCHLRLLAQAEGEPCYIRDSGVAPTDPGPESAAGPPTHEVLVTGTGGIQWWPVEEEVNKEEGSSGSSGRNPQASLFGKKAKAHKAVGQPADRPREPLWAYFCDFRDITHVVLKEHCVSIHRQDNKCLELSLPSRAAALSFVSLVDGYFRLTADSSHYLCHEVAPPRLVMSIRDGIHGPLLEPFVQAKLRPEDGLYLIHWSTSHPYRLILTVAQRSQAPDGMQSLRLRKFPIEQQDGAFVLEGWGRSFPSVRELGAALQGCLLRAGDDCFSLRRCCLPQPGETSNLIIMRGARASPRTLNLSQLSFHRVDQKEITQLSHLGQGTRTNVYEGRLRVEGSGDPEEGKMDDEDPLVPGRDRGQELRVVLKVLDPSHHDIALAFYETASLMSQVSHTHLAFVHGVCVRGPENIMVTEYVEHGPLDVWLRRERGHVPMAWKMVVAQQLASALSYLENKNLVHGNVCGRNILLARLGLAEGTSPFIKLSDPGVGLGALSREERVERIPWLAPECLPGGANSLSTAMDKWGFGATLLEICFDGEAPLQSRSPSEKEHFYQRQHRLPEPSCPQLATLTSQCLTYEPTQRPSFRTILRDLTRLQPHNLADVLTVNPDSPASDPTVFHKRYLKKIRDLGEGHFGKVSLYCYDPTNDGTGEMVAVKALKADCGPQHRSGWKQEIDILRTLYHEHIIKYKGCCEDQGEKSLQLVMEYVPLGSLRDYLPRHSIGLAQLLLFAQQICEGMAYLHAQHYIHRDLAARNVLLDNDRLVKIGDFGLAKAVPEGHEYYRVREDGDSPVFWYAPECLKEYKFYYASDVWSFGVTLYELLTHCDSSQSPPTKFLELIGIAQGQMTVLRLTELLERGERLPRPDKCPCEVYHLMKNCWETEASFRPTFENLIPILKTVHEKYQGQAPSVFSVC
Assay: Tyk2 activity inhibition assay (radioactive kinase assay / Caliper assay)
Format: biochemical
Details: not given
Experimental: Peptide substrate, [[…]], (20 μM) is prepared in reaction buffer (20 mM Hepes pH 7.5, 10 mM MgCl2, 1 mM EGTA, 0.02% Brij35, 0.02 mg/mL BSA, […], 2 mM DTT, 1% DMSO. TYK2 (Invitrogen) kinase is added, followed by compounds in DMSO. 33PATP is added to initiate the reaction in ATP at 10 μM. Kinase reaction is incubated for 120 min at room temp and reactions are spotted onto P81 ion exchange paper (Whatman #3698-915), and then washed extensively in 0.75% phosphoric acid, prior to reading the radioactivity counts. For JAK2 (Invitrogen) kinase assay the peptide substrate poly[Glu:Tyr](4:1), 0.2 mg/ml is used, in the reaction carried out the same as for TYK2.
The caliper machine employs an off chip mobility shift assay to detect phosphorylated peptide substrates from kinase assays, using microfluidics technology. The assays are carried out at ATP concentration equivalent to the ATP Km, and at 1 mM ATP. Compounds are serially diluted in DMSO then further diluted in assay buffer (25 mM HEPES, pH 7.5, 0.01% Brij-35, 0.01% Triton, 0.5 mM EGTA). 5 ul of diluted compound was added into wells first, then 10 ul of enzyme mix was added into wells, followed by 10 uL of substrate mix (peptide and ATP in 10 mM MgCl2) to start reaction. Reaction was incubated at 28° C. for 25 min and then added 25 ul stop buffer (100 mM HEPES, 0.015% Brij-35, 50 mM EDTA), followed by reading with Caliper. JAK2 at 1 nM final concentration and TYK2 at 9.75 nM are from Carna, and substrates used are ATP at 20 and 16 uM, respectively. JAK2 assay uses peptide 22 and TYK2 uses peptide 30 (Caliper), each at 3 uM.

Compound | Ki [µM]
O=C1NCc2nc(-c3c(F)cccc3F)nc(Nc3ccc(OC(F)(F)F)cc3)c21 [Compound I-184, 2-(2,6-difluorophenyl)-4-((4-(trifluoro-methoxy)phenyl)amino)-6,7-dihydro-5H-pyrrolo[3,4-d]pyrimidin-5-one] | 0.01 to 0.1
